We go through twelve compounds from patent US20260015350A1, “AZAQUINAZOLINE PAN-KRAS INHIBITORS” (Mirati Therapeutics, Inc., priority 2022, published 2026).

The IC50 is the point on the concentration scale where inhibition reaches its midpoint. A high value points to weaker potency.

The target of one assay is T1, KRas^G12R (Homo sapiens, UniProt P01116, G12R).
T1 construct: Biotinylated KRas (corresponding to amino acids 1-169, produced at Accelegan Inc.); biotin (biotinylated); purchased Accelegan Inc
Nature of the assay: KRas binding assay (TR-FRET tracer displacement), KRas G12R.

Assay [1] has as its system KRas-mediated phosphorylation of ERK in H727 cells. Nature of the assay: Inhibition of KRas-mediated phosphorylation of ERK (Cisbio HTRF pERK), H727 cells. Type of assay: cell-based. As to conditions: Homo sapiens, NCI-H727, H727 cells; HTRF pERK. Put shortly: (§1)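 Signal read by HTRF (d2/Cryptate antibody pair, 2 hr room-temperature incubation on lysate). Cells: 6,000 per well, 3 hr compound exposure. Titration: 10 uM highest, 3-fold, 10 points.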

The target of a further assay is T2, KRas^G12V (Homo sapiens, UniProt P01116, G12V).
T2 construct: Biotinylated KRas (corresponding to amino acids 1-169, produced at Accelegan Inc.); biotin (biotinylated); purchased Accelegan Inc
In words: KRas binding assay (TR-FRET tracer displacement), KRas G12V. Background: In TR-FRET formats the signal depends on donor and acceptor labels being close together.

For assay [2], the system named is KRas-mediated phosphorylation of ERK in MKN1 cells. Nature of the assay: Inhibition of KRas-mediated phosphorylation of ERK (Cisbio HTRF pERK), MKN1 cells. Type of assay: cell-based. As to conditions: Homo sapiens, MKN-1. On the procedure:
(§2) Inhibition of KRas Phosphorylation of ERK (HTRF) by Exemplary Compounds of Formula (I)
(§3) Cisbio HTRF Advanced PERK Assay Catalog #64AERPEH
(§4) Day 1: Seed 6,000 cells/well-25 μl/well in 384-well white solid bottom plate; RPM1_10% FBS. Incubate overnight at 37° C./5% CO2.
(§5) Incubate for 4 hours at room temperature covered.
(§6) Read HTRF using ClarioStar

Assay [3] concerns KRas-mediated phosphorylation of ERK in AsPC-1 cells. In words: Inhibition of KRas-mediated phosphorylation of ERK (Cisbio HTRF pERK), AsPC-1 cells. As to conditions: Homo sapiens, ASPC1, AsPC-1 cells; HTRF pERK. Type of assay: cell-based. Summed up: as §1
Another assay deals with T3, KRas^G12D (Homo sapiens, UniProt P01116, G12D).
T3 construct: Biotinylated KRas (corresponding to amino acids 1-169, produced at Accelegan Inc.); biotin (biotinylated); purchased Accelegan Inc
Nature of the assay: KRas binding assay (TR-FRET tracer displacement), KRas G12D.

Assay [4] concerns KRas-mediated phosphorylation of ERK in PSN1 cells. In words: Inhibition of KRas-mediated phosphorylation of ERK (Cisbio HTRF pERK), PSN1 cells. The class given is cell-based. The following applies: Homo sapiens. As for the experimental part:
as §2, §3, §4, §5, §6

T2 sequence (P01116 1-169 isoform P01116-2 G12V): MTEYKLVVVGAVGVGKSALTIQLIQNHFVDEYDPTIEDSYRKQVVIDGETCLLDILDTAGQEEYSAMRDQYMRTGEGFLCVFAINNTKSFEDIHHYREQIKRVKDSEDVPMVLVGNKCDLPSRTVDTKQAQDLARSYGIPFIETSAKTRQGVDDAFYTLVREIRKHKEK
T3 sequence (P01116 1-169 isoform P01116-2 G12D): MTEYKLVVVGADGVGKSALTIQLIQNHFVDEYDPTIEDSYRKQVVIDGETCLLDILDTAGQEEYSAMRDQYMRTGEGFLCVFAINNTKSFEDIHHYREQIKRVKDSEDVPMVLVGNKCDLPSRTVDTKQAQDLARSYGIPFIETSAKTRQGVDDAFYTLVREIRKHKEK
T1 sequence (P01116 1-169 isoform P01116-2 G12R): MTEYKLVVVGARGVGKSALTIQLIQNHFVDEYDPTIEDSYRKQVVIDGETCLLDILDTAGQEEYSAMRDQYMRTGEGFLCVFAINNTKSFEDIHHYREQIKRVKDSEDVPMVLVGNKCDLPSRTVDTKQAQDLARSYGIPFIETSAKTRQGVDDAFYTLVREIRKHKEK

Turning to `CCc1c(F)ccc2cc(O)cc(-c3ncc4c(N5CCC[C@H](c6ccnn6C)CC5)nc(OC[C@@]56CCCN5C[C@H](F)C6)nc4c3F)c12` [Example 634, 5-ethyl-6-fluoro-4-(8-fluoro-2-(((2R,7aS)-2-fluorotetrahydro-1H-pyrrolizin-7a(5H)-yl)methoxy)-4-((S)-4-(1-methyl-1H-pyrazol-5-yl)azepan-1-yl)pyrido[4,3-d]pyrimidin-7-yl)naphthalen-2-ol], the IC50 at KRas^G12R is 839 nM; in assay [1], 6210 nM; at KRas^G12V, 262 nM; in assay [2], 2980 nM; in assay [3], above 10000 nM; on KRas^G12D, 2240 nM. Besides, in assay [4], the IC50 is above 10000 nM.

`CCc1c(F)ccc2cc(O)cc(-c3ncc4c(NS(=O)(=O)C[C@H]5CNCCO5)nc(OC[C@@]56CCCN5C[C@H](F)C6)nc4c3F)c12` [Example 637, N-(7-(8-ethyl-7-fluoro-3-hydroxynaphthalen-1-yl)-8-fluoro-2-(((2R,7aS)-2-fluorotetrahydro-1H-pyrrolizin-7a(5H)-yl)methoxy)pyrido[4,3-d]pyrimidin-4-yl)-1-((R)-morpholin-2-yl)methanesulfonamide]: the IC50 at KRas^G12R is 2250 nM; in assay [1] it was above 10000 nM; on KRas^G12V, 3790 nM; in assay [2] it was above 10000 nM; in assay [3] it was above 10000 nM; on KRas^G12D, 1220 nM. The IC50 in assay [4] was above 10000 nM.

`CCc1c(F)ccc2cc(O)cc(-c3ncc4c(NCc5cnn(C(=O)N(C)C)c5N)nc(OC[C@@]56CCCN5C[C@H](F)C6)nc4c3F)c12` [Example 640, 5-amino-4-(((7-(8-ethyl-7-fluoro-3-hydroxynaphthalen-1-yl)-8-fluoro-2-(((2R,7aS)-2-fluorohexahydro-1H-pyrrolizin-7a-yl)methoxy)pyrido[4,3-d]pyrimidin-4-yl)amino)methyl)-N,N-dimethyl-1H-pyrazole-1-carboxamide]: the IC50 is 17 nM at KRas^G12R; 889 nM in assay [1]; 16 nM on KRas^G12V; 208 nM in assay [2]; 5130 nM in assay [3]; 83 nM at KRas^G12D. The same compound yielded an IC50 in assay [4] above 10000 nM.

For `CCc1c(F)ccc2cc(O)cc(-c3ncc4c(N5CCCC6(C[C@H](O)[C@H](O)CO6)C5)nc(OC[C@@]56CCCN5C[C@H](F)C6)nc4c3F)c12` (stereo partly drawn) [Example 642, (3R,4S)-8-(7-(8-ethyl-7-fluoro-3-hydroxynaphthalen-1-yl)-8-fluoro-2-(((2R,7aS)-2-fluorohexahydro-1H-pyrrolizin-7a-yl)methoxy)pyrido[4,3-d]pyrimidin-4-yl)-1-oxa-8-azaspiro[5.5]undecane-3,4-diol], the IC50 is 195 nM on KRas^G12R; above 10000 nM in assay [1]; 235 nM at KRas^G12V; 2870 nM in assay [2]; above 10000 nM in assay [3]; 864 nM at KRas^G12D. Also, the IC50 in assay [4] was above 10000 nM.

On to `CCc1c(F)ccc2cc(O)cc(-c3ncc4c(N[C@H](C)c5cc(C(=O)N(C)C)nn5C)nc(OC[C@@]56CCCN5C[C@H](F)C6)nc4c3F)c12` [Example 651, 5-((R)-1-((7-(8-ethyl-7-fluoro-3-hydroxynaphthalen-1-yl)-8-fluoro-2-(((2R,7aS)-2-fluorohexahydro-1H-pyrrolizin-7a-yl)methoxy)pyrido[4,3-d]pyrimidin-4-yl)amino)ethyl)-N,N,1-trimethyl-1H-pyrazole-3-carboxamide], for which the IC50 at KRas^G12R amounted to 15 nM; in assay [1], 1790 nM; on KRas^G12V it was 10 nM; in assay [2], 546 nM; in assay [3], 1460 nM; on KRas^G12D it was 30 nM. In assay [4], the IC50 is above 10000 nM.

With `CCc1c(F)ccc2cc(O)cc(-c3ncc4c(N5CCCC6(CCNS(=O)(=O)N6)C5)nc(OC[C@@]56CCCN5C[C@H](F)C6)nc4c3F)c12` (stereo partly drawn) [Example 656, 8-(7-(8-ethyl-7-fluoro-3-hydroxynaphthalen-1-yl)-8-fluoro-2-(((2R,7aS)-2-fluorotetrahydro-1H-pyrrolizin-7a(5H)-yl)methoxy)pyrido[4,3-d]pyrimidin-4-yl)-2-thia-1,3,8-triazaspiro[5.5]undecane 2,2-dioxide], the IC50 on KRas^G12R turned out to be 10 nM; in assay [1], 2380 nM; on KRas^G12V, 6 nM; in assay [2] it was 943 nM; in assay [3], 1900 nM; on KRas^G12D, 5 nM. This compound yielded an IC50 in assay [4] of 3240 nM.

For the compound `CN(C)C(=O)c1cc2n(n1)CCCN(c1nc(OCC34CCCN3CCC4)nc3c(F)c(-c4cc(O)cc(Cl)c4C4CC4)ncc13)C2` [Example 744, 5-(7-(3-chloro-2-cyclopropyl-5-hydroxyphenyl)-8-fluoro-2-((hexahydro-1H-pyrrolizin-7a-yl)methoxy)pyrido[4,3-d]pyrimidin-4-yl)-N,N-dimethyl-5,6,7,8-tetrahydro-4H-pyrazolo[1,5-a][1,4]diazepine-2-carboxamide], the IC50 at KRas^G12R is 2 nM; in assay [1] it was 5730 nM; at KRas^G12V, below 2 nM; in assay [2], above 10000 nM; in assay [3], 2730 nM; at KRas^G12D, below 2 nM. The same compound gave an IC50 in assay [4] above 10000 nM.

Regarding `O=S1(=O)CCC2(CCCN(c3nc(OC[C@@]45CCCN4C[C@H](F)C5)nc4c(F)c(-c5cc(O)cc6ccc(F)c(Cl)c56)ncc34)C2)N1` (stereo partly drawn) [Example 807, 7-(7-(8-chloro-7-fluoro-3-hydroxynaphthalen-1-yl)-8-fluoro-2-(((2R,7aS)-2-fluorotetrahydro-1H-pyrrolizin-7a(5H)-yl)methoxy)pyrido[4,3-d]pyrimidin-4-yl)-2-thia-1,7-diazaspiro[4.5]decane 2,2-dioxide], the IC50 is below 2 nM on KRas^G12R; 14 nM in assay [1]; 3 nM at KRas^G12V; 3 nM in assay [2]; 32 nM in assay [3]; below 2 nM on KRas^G12D. It took 125 nM to reach half-maximal inhibition in assay [4] (IC50).

In the case of `Cc1cccc2cc3[nH]ncc3c(-c3ncc4c(N5CCCC6(CNS(=O)(=O)N6)C5)nc(OCC56CCCN5CCC6)nc4c3F)c12` (stereo not drawn) [Example 808, 7-(8-fluoro-7-(5-methyl-1H-benzo[f]indazol-4-yl)-2-((tetrahydro-1H-pyrrolizin-7a(5H)-yl)methoxy)pyrido[4,3-d]pyrimidin-4-yl)-2-thia-1,3,7-triazaspiro[4.5]decane 2,2-dioxide], the IC50 was below 2 nM at KRas^G12R; 1690 nM in assay [1]; below 2 nM on KRas^G12V; 653 nM in assay [2]; 3070 nM in assay [3]; below 2 nM on KRas^G12D. Further, in assay [4], the IC50 is above 10000 nM.

On to `CCc1c(F)ccc2cc(O)cc(-c3ncc4c(NCc5cc(C(=O)N(C)C)nn5C5COC5)nc(OC[C@@]56CCCN5C[C@H](F)C6)nc4c3F)c12` [Example 810, 5-(((7-(8-ethyl-7-fluoro-3-hydroxynaphthalen-1-yl)-8-fluoro-2-(((2R,7aS)-2-fluorotetrahydro-1H-pyrrolizin-7a(5H)-yl)methoxy)pyrido[4,3-d]pyrimidin-4-yl)amino)methyl)-N,N-dimethyl-1-(oxetan-3-yl)-1H-pyrazole-3-carboxamide], for which the IC50 on KRas^G12R was 4 nM; in assay [1], 4980 nM; on KRas^G12V it was 4 nM; in assay [2] it was 110 nM; in assay [3] it was above 10000 nM; on KRas^G12D it was 13 nM. This compound came in with an IC50 in assay [4] above 10000 nM.

In the case of `CCc1c(F)ccc2cc(O)c(F)c(-c3ncc4c(N5C[C@@H]6C[C@H](C5)[C@H](O)C6)nc(OC[C@@]56CCCN5C[C@H](F)C6)nc4c3F)c12` [Example 811, (1R,5R,6R)-3-(7-(8-ethyl-2,7-difluoro-3-hydroxynaphthalen-1-yl)-8-fluoro-2-(((2R,7aS)-2-fluorotetrahydro-1H-pyrrolizin-7a(5H)-yl)methoxy)pyrido[4,3-d]pyrimidin-4-yl)-3-azabicyclo[3.2.1]octan-6-ol], the IC50 at KRas^G12R worked out at 4 nM; in assay [1] it was 68 nM; on KRas^G12V, 2 nM; in assay [2], 37 nM; in assay [3], 149 nM; on KRas^G12D, 8 nM. In addition, the IC50 in assay [4] was found to be 5670 nM.

Consider `C#Cc1c(F)ccc2cc(O)cc(-c3ncc4c(N5CCC[C@@](C)(O)C5)nc(OC[C@]56CCCN5[C@H](CO)CC6)nc4c3F)c12` [Example 814, (R)-1-(7-(8-ethynyl-7-fluoro-3-hydroxynaphthalen-1-yl)-8-fluoro-2-(((3S,7aR)-3-(hydroxymethyl)tetrahydro-1H-pyrrolizin-7a(5H)-yl)methoxy)pyrido[4,3-d]pyrimidin-4-yl)-3-methylpiperidin-3-ol], for which the IC50 at KRas^G12R is 3 nM; in assay [1], 402 nM; on KRas^G12V it was below 2 nM; in assay [2], 176 nM; in assay [3], 485 nM; on KRas^G12D, below 2 nM. The compound also returned an IC50 in assay [4] above 10000 nM.
